Laboratory results reported in patent US9855270B2, “Methods and compositions for modulating estrogen receptor mutants” (priority 2014, dated 2018).
Like-named read-outs stand apart in the source and are kept apart here.

What was measured:
Assay type in all cases: cell-based
Set-up in all cases: Percent inhibition compared to vehicle: concentration or dose not given beside the values
[1] = test system: MCF-7 cells stably expressing UbC HA-ER-α L536P; test: cells; settings: for EC50: Homo sapiens
From the text: (§1) MCF-7 Mutant ER-α Stable Cell Line Generation: MCF-7 cells stably expressing wild-type or ER-α mutants were generated by subcloning ESR1 wild-type and mutant cDNAs containing an amino terminal hemagglutinin tag into pCDH-EF1-MCS-(PGK-Puro) (referred to as EF1 HA-ER-α) and pCDH-UbC-MCS-EF1-Hygro (referred to as UbC HA-ER-α) (System Biosciences). The resulting plasmids, in addition to an empty vector negative control, were subsequently cotransfected into HEK293T cells with the pPACKH1 packaging plasmid mix (System Biosciences) according to the manufacturer's protocol. Four days post transfection lentiviral particles were purified from the cell medium, tiered and stored at −80° C. MCF-7 cells were transduced with the purified viral particles and stable cell lines were selected by growth in RPMI containing 10% FBS plus 1 μG/mL puromycin or 200 μG/mL hygromycin for pCDH-EF1-MCS-(PGK-Puro) and pCDH-UbC-MCS-EF1-Hygro, respectively.
(§2) MCF-7 Stable Cell Line Viability: MCF-7 cells were enumerated with a hemacytometer adjusted to a concentration of 40,000 cells per mL in Phenol Free RPMI containing 10% CSS with NEAA and Sodium Pyruvate. 16 microliters of the cell suspension was added to each well of a 384 well tissue culture treated white clear bottom polystyrene plate (Corning) using a Matrix 16 channel electronic pipette. The cells were incubated overnight to allow the cells to adhere. The following day, 16 microliters of Phenol Free RPMI containing 10% CSS with NEAA and Sodium Pyruvate was added to the wells of one plate, followed by 16 μL of CellTiter-Glo (Promega, Madison Wis.) luminescent cell viability reagent using a Matrix 16 channel electronic pipette. […] The “average” of the relative luminescence units (RLUs) of the wells are considered to be the baseline value at time=zero. In addition, a 10 point, 1:5 serial dilution in DMSO (Sigma-Aldrich) was performed using Matrix 12 channel electronic pipette, including DMSO only as […]. 4 μL of each dilution was then added to 196 μL of RPMI containing 10% CSS with NEAA and Sodium Pyruvate. 16 μL of medium containing compound was added to the cells at a final concentration ranging from 10 μM to 5 pM. Compound dilution in media and subsequent addition to cells were carried out using Matrix 12 channel electronic pipettes. After 5 day compound exposure, 16 μL of CellTiter-Glo (Promega, Madison Wis.) luminescent cell viability reagent was added to the cells using a Matrix 16 channel electronic pipette. CellTiter-Glo added to 32 μL of medium without cells was used to obtain a background value. […] The relative luminescence units (RLUs) of each well were measured, and relative proliferation (fold) of each sample was determined as follows: (RLU sample−RLU background)/(RLU at T=0)=relative proliferation
(§3) The UbC promoter is reported by the manufacturer (System Biosciences) to express low to moderate RNA levels while the EF1 promoter expresses high levels (System Biosciences).

[2] = test system: MCF-7 cells stably expressing UbC HA-ER-α Y537N; test: cells; settings: for EC50: Homo sapiens, MCF7, UbC HA-ER-α Y537N, read-out: Potency (EC50; nM); for Percent inhibition compared to vehicle / Efficacy (Emax): UbC HA-ER-α Y537N; for Percent inhibition compared to vehicle: 5-Day Incubation; for Efficacy (Emax): Day 5 relative to Day 0
From the text: as §1, §2, §3

[3] = test system: MCF-7 cells stably expressing EF1 HA-ER-α L536P; test: cells; settings: for Percent inhibition compared to vehicle / Efficacy (Emax): EF1 HA-ER-α L536P; for Percent inhibition compared to vehicle: 5-Day Incubation; for Efficacy (Emax): Day 5 relative to Day 0; for EC50: Homo sapiens, MCF7, EF1 HA-ER-α L536P, read-out: Potency (EC50; nM)
From the text: as §1, §2, §3

[4] = test system: MCF-7 cells stably expressing UbC HA-ER-α L536R; test: cells; settings: for EC50: Homo sapiens, MCF7, UbC HA-ER-α L536R, read-out: Potency (EC50; nM); for Percent inhibition compared to vehicle / Efficacy (Emax): UbC HA-ER-α L536R; for Percent inhibition compared to vehicle: 5-Day Incubation; for Efficacy (Emax): Day 5 relative to Day 0
From the text: as §1, §2, §3

[5] = test system: MCF-7 cells stably expressing EF1 HA-ER-α L536R; test: cells; settings: for Percent inhibition compared to vehicle / Efficacy (Emax): EF1 HA-ER-α L536R; for Percent inhibition compared to vehicle: 5-Day Incubation; for Efficacy (Emax): Day 5 relative to Day 0; for EC50: Homo sapiens, MCF7, EF1 HA-ER-α L536R, read-out: Potency (EC50; nM)
From the text: as §1, §2, §3

[6] = test system: MCF-7 cells stably expressing EF1 HA-ER-α Y537N; test: cells; settings: for Percent inhibition compared to vehicle: 5-Day Incubation; for EC50: Homo sapiens, MCF7, EF1 HA-ER-α Y537N, read-out: Potency (EC50; nM)
From the text: as §1, §2, §3

[7] = test system: MCF-7 cells (negative control); test: MCF-7 Stable Cell Line Viability (UbC HA-ER-α series); settings: for EC50: Homo sapiens, MCF7, Receptor None (MCF-7 negative control); for Percent inhibition compared to vehicle / Efficacy (Emax): Receptor None (MCF-7 negative control)
From the text: as §1, §2, §3

[8] = test system: MCF-7 cells stably expressing UbC HA-ER-α wild-type; test: as above; settings: for EC50: Homo sapiens, MCF7, UbC HA-ER-α Wild-type, read-out: Potency (EC50; nM); for Percent inhibition compared to vehicle / Efficacy (Emax): UbC HA-ER-α Wild-type; for Percent inhibition compared to vehicle: 5-Day Incubation; for Efficacy (Emax): Day 5 relative to Day 0
From the text: as §1, §2, §3

[9] = Agonist Mode, −E2, 5-Day Incubation
[10] = Agonist Mode, −E2, Day 5 relative to Day 0
[11] = Antagonist Mode, +E2, 5-Day Incubation
[12] = Antagonist Mode, +E2, Day 5 relative to Day 0

SMILES: CC/C(=C(/c1ccc(/C=C/C(=O)O)cc1)c1ccc2[nH]ncc2c1)c1ccc(F)cc1Cl [Compound 1-3, (E)-3-(4-((E)-2-(2-chloro-4-fluorophenyl)-1-(1H-indazol-5-yl)but-1-en-1-yl)phenyl)acrylic acid]
- Percent inhibition compared to vehicle [1, 9]: 50%
- Efficacy (Emax) [1, 10]: 1.58 ± 0.16
- Percent inhibition compared to vehicle [1, 11]: 72%
- Efficacy (Emax) [1, 12]: 1.69 ± 0.10
- EC50 ([1]; MCF7, Agonist Mode, −E2, read-out: Potency (EC50; nM)): 0.713 ± 0.487 nM
- EC50 ([1]; MCF7, read-out: Potency (EC50; nM), Antagonist Mode, +E2): 7.37 ± 3.93 nM
- EC50 ([2]; Agonist Mode, −E2): 2.22 ± 0.55 nM
- EC50 ([2]; Antagonist Mode, +E2): 9.5 ± 3.61 nM
- Percent inhibition compared to vehicle ([2]; Agonist Mode, −E2): 61%
- Efficacy (Emax) ([2]; Agonist Mode, −E2): 1.67 ± 0.15
- Percent inhibition compared to vehicle ([2]; Antagonist Mode, +E2): 76%
- Efficacy (Emax) ([2]; Antagonist Mode, +E2): 1.56 ± 0.04
- Percent inhibition compared to vehicle ([3]; Agonist Mode, −E2): 57%
- Efficacy (Emax) ([3]; Agonist Mode, −E2): 3.54 ± 0.45
- Percent inhibition compared to vehicle ([3]; Antagonist Mode, +E2): 59%
- Efficacy (Emax) ([3]; Antagonist Mode, +E2): 3.74 ± 0.53
- EC50 ([3]; Agonist Mode, −E2): 18.2 ± 3.29 nM
- EC50 ([3]; Antagonist Mode, +E2): 41.9 ± 8.25 nM
- EC50 ([4]; Agonist Mode, −E2): 0.926 ± 0.428 nM
- EC50 ([4]; Antagonist Mode, +E2): 6.96 ± 3.76 nM
- Percent inhibition compared to vehicle ([4]; Agonist Mode, −E2): 55%
- Efficacy (Emax) ([4]; Agonist Mode, −E2): 1.73 ± 0.22
- Percent inhibition compared to vehicle ([4]; Antagonist Mode, +E2): 71%
- Efficacy (Emax) ([4]; Antagonist Mode, +E2): 1.71 ± 0.10
- Percent inhibition compared to vehicle ([5]; Agonist Mode, −E2): 47%
- Efficacy (Emax) ([5]; Agonist Mode, −E2): 3.61 ± 0.24
- Percent inhibition compared to vehicle ([5]; Antagonist Mode, +E2): 45%
- Efficacy (Emax) ([5]; Antagonist Mode, +E2): 3.77 ± 0.48
- EC50 ([5]; Agonist Mode, −E2): 10.4 ± 6.52 nM
- EC50 ([5]; Antagonist Mode, +E2): 15.6 ± 6.9 nM
- Percent inhibition compared to vehicle ([6]; EF1 HA-ER-α Y537N, Agonist Mode, −E2): 48%
- Efficacy (Emax) ([6]; EF1 HA-ER-α Y537N, Agonist Mode, −E2, Day 5 relative to Day 0): 3.11 ± 0.28
- Percent inhibition compared to vehicle ([6]; EF1 HA-ER-α Y537N, Antagonist Mode, +E2): 44%
- EC50 ([6]; Agonist Mode, −E2): 97.3 ± 46.9 nM
- EC50 ([6]; Antagonist Mode, +E2): 125 ± 35.5 nM
- EC50 ([7]; Agonist Mode, −E2, read-out: Potency (EC50; nM)): 0.603 ± 0.74 nM
- EC50 ([7]; Antagonist Mode, +E2, read-out: Potency (EC50; nM)): 4.84 ± 4.42 nM
- Percent inhibition compared to vehicle [7, 9]: 30%
- Efficacy (Emax) [7, 10]: 1.23 ± 0.88
- Percent inhibition compared to vehicle [7, 11]: 70%
- Efficacy (Emax) [7, 12]: 0.97 ± 0.01
- EC50 ([8]; Agonist Mode, −E2): 0.58 ± 0.386 nM
- EC50 ([8]; Antagonist Mode, +E2): 5.5 ± 6.28 nM
- Percent inhibition compared to vehicle ([8]; Agonist Mode, −E2): 37%
- Efficacy (Emax) ([8]; Agonist Mode, −E2): 1.17 ± 0.17
- Percent inhibition compared to vehicle ([8]; Antagonist Mode, +E2): 76%
- Efficacy (Emax) ([8]; Antagonist Mode, +E2): 1.16 ± 0.03
